Measured values reported in patent publication US20030113421A1, “Synergistic combinations of natural of compounds that control decay of fruits and vegetables and reduce contamination by foodborne human pathogens” (priority 2001, published 2003).
Read-outs that look alike come from different tables or passages of the source.

Tests used:
E. coli on apple disks = test system: E. coli on apple disks; set-up: species or system Escherichia coli
Protocol: (§1) E. coli (Strain #139 HB101/p5G6) was grown at 24° C. for 48 hr in shake-flask cultures of Lennox broth (LB). Bacterial cells were pelleted by centrifugation in a Sorvall RC-58 centrifuge (Dupont Instruments, Wilmington, Del.) at 3000 g for 20 min, resuspended in sterile distilled water, and centrifuged again. The resulting pellets were dispersed in sterile distilled water and the cell concentration was adjusted to 10^6 CFU per ml using a standard optical density (OD) curve with the OD values of 0.1 and 1 representing viable cell counts of 1×10^6 and 1×10^9, respectively. E. coli 015:H7 and L. monocytogenes isolates were grown overnight at 37° C. in trypticase soy broth and brain heart infusion, respectively. The concentration of cells was adjusted to 10^6 CFU per ml. Botrytis cinerea and Penicillium expansum were isolated from infected fruit and maintained on potato dextrose agar (PDA). A spore suspension was obtained by flooding 2 wk cultures of B. cinerea with sterile distilled water containing 0.1% (v/v) TWEEN 80. Spore counts were determined with a hemacytometer and spore concentrations were adjusted with sterile distilled water to obtain 10^5 spores per ml.
Tree-ripe apples (Malus domestica Borkh) cultivar ‘Red delicious’ were hand-picked at harvest maturity at the Appalachian Fruit Research Station, Kearneysville, W. Va. Fruit were sorted to remove any with apparent injuries or infections and stored at 4° C. under refrigeration before being used in the biocontrol tests. Apple disks (10 mm) were excised from selected Red delicious apples using a cork borer. Apple disks were treated by immersion for 90 min in a 0.1% solution of various essential oils and/or their combinations with 0.1 % chitosan salts. Disks were either treated with the different combinations of natural compounds and then inoculated with E. coli by soaking apple disks in a solution of E. coli for 90 min or inoculated with E. coli and incubated at 24° C. for 24 hr. From each treatment four disks were selected randomly, individually homogenized in 5 ml of sterile water, vortexed, and dilution plated in triplicate on a LB agar medium. Plates were incubated at 24° C. and colonies were counted after 48 hr.

E. coli = assay type: cell-based, Escherichia coli; conditions: for concentration at which inhibitory to E. coli growth: essential oil tested individually
Protocol: as §1
(§2) The individual effects of various essential oils and chitosan salts, and the combined effects of essential oils and chitosan salts on the growth of the indicator organism E. coli and on the postharvest pathogen B. cinerea were determined. To measure the effects of the various treatments on spore germination of B. cinerea and growth of the E. coli, the essential oils: bay, cinnamon, savory, thyme red, allspice, birch, cloves, carvacrol, and hinokitiol (Aroma Vera, Cuber City, Calif.) and MMW chitosan in acetic, propionic, and sorbic acids were combined together with B. cinerea or E. coli to yield final concentrations of 0.1 to 0.025% for the essential oils and 0.1 to 0.0016% for the chitosan salts. For the assays, 500 spores of B. cinerea were added to each treatment in microtiter dishes or three ml of a 2X concentration of E. coli (i.e., 2×10^6 CFU/ml) were combined with three ml of a 2X concentration of treatment in a 15 ml centrifuge tube, agitated overnight, and plated after 24 hr onto LB agar plates (100 μl suspension/plate). The surfactant (Triton×100) was present at a final concentration of 0.04%. […] Four replicate tubes of each treatment were used; each experiment was repeated twice. The viable bacterial cell number was counted by surface plating serially diluted samples in triplicate on LB agar medium. Plates were incubated at 24° C. and colonies were counted at 48 hr. Botrytis spore germination was determined microscopically.

B. cinerea = assay: Effect of concentration and of synergistic combinations of essential oils and chitosan salts on spore germination of B. cinerea; assay type: cell-based, Botrytis cinerea
Protocol: as §1, §2

[1] = essential oil alone 0.025% v/v, CFU in 100 μl sample
[2] = essential oil alone 0.05% v/v, CFU in 100 μl sample
[3] = essential oil alone 0.075% v/v, CFU in 100 μl sample
[4] = essential oil alone 0.1% v/v, CFU in 100 μl sample

Compound: CCC(=O)O [Propionate]
- Eradicant Activity E. coli (CFU) (E. coli on apple disks; apple disks immersed in 10^6 CFU per ml E. coli for 90 min, drained, then treated (0.1% v/v)): TNTC
- Protectant Activity E. coli (CFU) (E. coli on apple disks; apple disks treated (0.1% v/v), thereafter immersed in 10^6 CFU per ml E. coli for 90 min, CFU in 100 ml sample): TNTC

Compound: CC=CC=CC(=O)O [Sorbate]
- Eradicant Activity E. coli (CFU) (E. coli on apple disks): TNTC
- Protectant Activity E. coli (CFU) (E. coli on apple disks): TNTC

Compound: CC(C)c1cccc(=O)c(O)c1 [Hinokitiol, hinokitiol]
- Growth of E. coli (CFU), combination (E. coli): 60 CFU
- Growth of E. coli (CFU), combination (E. coli; essential oil 0.075% + Chitosan acetate 0.0032%, CFU in 100 μl sample): 102 CFU
- Growth of E. coli (CFU), combination (E. coli; essential oil 0.075% + Chitosan propionate 0.0032%, CFU in 100 μl sample): 56 CFU
- Growth of E. coli (CFU), synergy table (E. coli; essential oil 0.075% + Water (no chitosan salt), CFU in 100 μl sample): 1108 CFU
- Growth of E. coli (CFU) (E. coli; [1]): TNTC
- Growth of E. coli (CFU) (E. coli; [2]): TNTC
- Growth of E. coli (CFU) (E. coli; [3]): 812 CFU
- Growth of E. coli (CFU) (E. coli; [4]): 0 CFU
- concentration at which inhibitory to E. coli growth (E. coli): 0.075%
- Percent Inhibition of Spore Germination, combination (B. cinerea): 100%
- Percent Inhibition of Spore Germination, combination (B. cinerea; essential oil 0.067% + Chitosan acetate 0.02%): 100%
- Percent Inhibition of Spore Germination, combination (B. cinerea; essential oil 0.067% + Chitosan propionate 0.02%): 100%
- Percent Inhibition of Spore Germination, synergy table (B. cinerea; essential oil 0.067% + Water (no chitosan salt)): 0%

Compound: Cc1ccc(C(C)C)cc1O [Carvacrol, carvacrol]
- Growth of E. coli (CFU), synergy table (E. coli): 1430 CFU
- Growth of E. coli (CFU) (E. coli; [1]): TNTC
- Growth of E. coli (CFU) (E. coli; [2]): 0 CFU
- Growth of E. coli (CFU) (E. coli; [3]): 0 CFU
- Growth of E. coli (CFU) (E. coli; [4]): 0 CFU
- concentration at which inhibitory to E. coli growth (E. coli): 0.05%
